Measured values taken from PubChem BioAssay (NCI).
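At the GI50, growth is halved. TGI: concentration producing complete growth inhibition.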

How the values were obtained:
Assay in all cases: DTP human tumour cell line panel, 384-well format
[1] = test system: HT29 colon
[2] = test system: OVCAR-8 ovarian
[3] = test system: HCC-2998 colon
[4] = test system: NCI-H23 lung
[5] = test system: PC-3 prostate
[6] = test system: MDA-MB-468 breast
[7] = test system: HL-60(TB) leukemia
[8] = test system: T-47D breast
[9] = test system: EKVX NSCLC
[10] = test system: ACHN renal
[11] = test system: LOX IMVI melanoma
[12] = test system: NCI-H460 NSCLC
[13] = test system: NCI-H226 lung
[14] = test system: HCT-15 colon
[15] = test system: CAKI-1 renal
[16] = test system: 786-0 renal
[17] = test system: UACC-257 melanoma
[18] = test system: SK-OV-3 ovarian
[19] = test system: U251 glioblastoma
[20] = test system: SK-MEL-28 melanoma
[21] = test system: MCF7 breast
[22] = test system: TK-10 renal
[23] = test system: SN12C renal
[24] = test system: HS 578T breast
[25] = test system: OVCAR-4 ovarian
[26] = test system: M14 melanoma
[27] = test system: HOP-62 NSCLC
[28] = test system: CCRF-CEM leukemia
[29] = test system: UACC-62 melanoma
[30] = test system: HOP-92 NSCLC
[31] = test system: MOLT-4 leukemia
[32] = test system: OVCAR-3 ovarian
[33] = test system: KM12 colon
[34] = test system: MDA-MB-231 breast
[35] = test system: UO-31 renal
[36] = test system: DU-145 prostate
[37] = test system: NCI-H322M lung
[38] = test system: SF-268 CNS
[39] = test system: OVCAR-5 ovarian
[40] = test system: SR leukemia
[41] = test system: COLO 205 colon
[42] = test system: NCI-H522 lung
[43] = test system: SNB-19 CNS
[44] = test system: IGROV1 ovarian
[45] = test system: RPMI-8226 leukemia
[46] = test system: NCI/ADR-RES ovarian
[47] = test system: BT-549 breast
[48] = test system: SNB-75 CNS
[49] = test system: SF-295 CNS
[50] = test system: K-562 leukemia
[51] = test system: A498 renal
[52] = test system: SW-620 colon
[53] = test system: MALME-3M melanoma
[54] = test system: RXF 393 renal
[55] = test system: MDA-MB-435 melanoma
[56] = test system: A549 NSCLC
[57] = test system: SF-539 CNS

CCNC(=O)c1noc(-c2cc(C(C)C)c(O)cc2O)c1-c1ccc(CN2CCOCC2)cc1
GI50 [1]: 0.0859 µM
TGI [1]: 10.4 µM
GI50 [2]: < 0.01 µM
TGI [2]: < 0.01 µM
GI50 [3]: < 0.01 µM
TGI [3]: < 0.01 µM
GI50 [4]: < 0.01 µM
TGI [4]: < 0.01 µM
GI50 [5]: < 0.01 µM
TGI [5]: 0.0296 µM
GI50 [6]: < 0.01 µM
TGI [6]: < 0.01 µM
GI50 [7]: < 0.01 µM
TGI [7]: < 0.01 µM
GI50 [8]: < 0.01 µM
TGI [8]: 0.0448 µM
GI50 [9]: < 0.01 µM
TGI [9]: 1.03 µM
GI50 [10]: < 0.01 µM
TGI [10]: 15.5 µM
GI50 [11]: < 0.01 µM
TGI [11]: < 0.01 µM
GI50 [12]: < 0.01 µM
TGI [12]: < 0.01 µM
GI50 [13]: < 0.01 µM
TGI [13]: 11.7 µM
GI50 [14]: < 0.01 µM
TGI [14]: 10.4 µM
GI50 [15]: < 0.01 µM
TGI [15]: 12.6 µM
GI50 [16]: < 0.01 µM
TGI [16]: 0.0304 µM
GI50 [17]: < 0.01 µM
TGI [17]: 0.42 µM
GI50 [18]: < 0.01 µM
TGI [18]: 11 µM
GI50 [19]: < 0.01 µM
TGI [19]: 0.0297 µM
GI50 [20]: < 0.01 µM
TGI [20]: 0.0428 µM
GI50 [21]: < 0.01 µM
TGI [21]: 0.0112 µM
GI50 [22]: 0.0244 µM
TGI [22]: 0.081 µM
GI50 [23]: < 0.01 µM
TGI [23]: 0.028 µM
GI50 [24]: < 0.01 µM
TGI [24]: < 0.01 µM
GI50 [25]: < 0.01 µM
TGI [25]: < 0.01 µM
GI50 [26]: < 0.01 µM
TGI [26]: 11.2 µM
GI50 [27]: < 0.01 µM
TGI [27]: 0.0131 µM
GI50 [28]: < 0.01 µM
TGI [28]: < 0.01 µM
GI50 [29]: < 0.01 µM
TGI [29]: < 0.01 µM
GI50 [30]: < 0.01 µM
TGI [30]: < 0.01 µM
GI50 [31]: < 0.01 µM
TGI [31]: < 0.01 µM
GI50 [32]: < 0.01 µM
TGI [32]: < 0.01 µM
GI50 [33]: < 0.01 µM
TGI [33]: 0.013 µM
GI50 [34]: < 0.01 µM
TGI [34]: < 0.01 µM
GI50 [35]: 0.0494 µM
TGI [35]: > 100 µM
GI50 [36]: < 0.01 µM
TGI [36]: < 0.01 µM
GI50 [37]: < 0.01 µM
TGI [37]: 12.2 µM
GI50 [38]: < 0.01 µM
TGI [38]: 10.7 µM
GI50 [39]: 0.0169 µM
TGI [39]: 0.0761 µM
GI50 [40]: < 0.01 µM
TGI [40]: < 0.01 µM
GI50 [41]: 0.0207 µM
TGI [41]: 0.157 µM
GI50 [42]: < 0.01 µM
TGI [42]: 0.0236 µM
GI50 [43]: 0.0131 µM
TGI [43]: 0.0637 µM
GI50 [44]: 0.0121 µM
TGI [44]: 0.037 µM
GI50 [45]: < 0.01 µM
TGI [45]: < 0.01 µM
GI50 [46]: 0.0669 µM
TGI [46]: 0.269 µM
GI50 [47]: < 0.01 µM
TGI [47]: < 0.01 µM
GI50 [48]: < 0.01 µM
TGI [48]: < 0.01 µM
GI50 [49]: 0.0247 µM
TGI [49]: 0.115 µM
GI50 [50]: < 0.01 µM
TGI [50]: < 0.01 µM
GI50 [51]: < 0.01 µM
TGI [51]: 3.88 µM
GI50 [52]: < 0.01 µM
TGI [52]: < 0.01 µM
GI50 [53]: < 0.01 µM
TGI [53]: < 0.01 µM
GI50 [54]: < 0.01 µM
TGI [54]: < 0.01 µM
GI50 [55]: < 0.01 µM
TGI [55]: 14.9 µM
GI50 [56]: < 0.01 µM
TGI [56]: 10.7 µM
GI50 [57]: < 0.01 µM
TGI [57]: < 0.01 µM
